Measured values reported in PMC3060082 (Journal of medicinal chemistry, 2010).

Experiments:
NAADP receptor [1] = assay: Ca2+ release from Ca2+ loaded sea urchin egg homogenates; assay type: biochemical, sea urchin (Strongylocentrotus purpuratus); settings: for Fold increase in EC50: relative to NAADP (1); for concentration as low as which calcium-ion release is induced: Figure 1 traces; for amount of calcium release at saturating concentrations: compared with NAADP; for potency for Ca2+ release compared to NAADP (fold less potent): text summary of concentration response curves, Figure 2 / Table 3
NAADP receptor [2] = assay: Competition ligand binding with [32P]NAADP in sea urchin egg homogenate; settings: assay not specified
NAADP receptor [3] = assay type: biochemical, sea urchin; settings: 9 min pretreatment at 1 nM or higher (subthreshold concentration)

Fold increase in EC50 (NAADP receptor [1]) | potency for Ca2+ release compared to NAADP (fold less potent) (NAADP receptor [1]) | loss of potency relative to NAADP (NAADP receptor [2]) | Compound | also measured
> 50,000 fold |  |  | Nc1ncnc2c1ncn2[C@@H]1O[C@H](COP(=O)(O)OP(=O)(O)OC[C@@H]2O[C@H]([n+]3cc(C(=O)[O-])cc(C(=O)O)c3)[C@@H](O)[C@H]2O)[C@@H](O)[C@H]1OP(=O)(O)O [compound 22, 5-carboxy-NAADP] | 
> 50,000 fold |  |  | CCCCc1cc[n+]([C@H]2O[C@@H](COP(=O)(O)OP(=O)(O)OC[C@H]3O[C@@H](n4cnc5c(N)ncnc54)[C@H](OP(=O)(O)O)[C@@H]3O)[C@H](O)[C@@H]2O)cc1C(=O)[O-] [compound 18, 4-n-butyl-NAADP] | 
> 50,000 fold |  |  | Nc1ncnc2c1ncn2[C@@H]1O[C@H](COP(=O)(O)OP(=O)(O)OC[C@@H]2O[C@H]([n+]3ccc(-c4ccccc4)c(C(=O)[O-])c3)[C@@H](O)[C@H]2O)[C@@H](O)[C@H]1OP(=O)(O)O [compound 19, 4-phenyl-NAADP] | 
 | 10 to 100 fold | 20 fold | CCc1cc(C(=O)[O-])c[n+]([C@H]2O[C@@H](COP(=O)(O)OP(=O)(O)OC[C@H]3O[C@@H](n4cnc5c(N)ncnc54)[C@H](OP(=O)(O)O)[C@@H]3O)[C@H](O)[C@@H]2O)c1 [compound 23, 5-ethyl-NAADP] | 
 | 10 to 100 fold |  | [N-]=[N+]=Nc1cc(C(=O)[O-])c[n+]([C@H]2O[C@@H](COP(=O)(O)OP(=O)(O)OC[C@H]3O[C@@H](n4cnc5c(N)ncnc54)[C@H](OP(=O)(O)O)[C@@H]3O)[C@H](O)[C@@H]2O)c1 [compound 24, 5-azido-NAADP] | 

Compound | Fold increase in EC50 (NAADP receptor [1]) | potency for Ca2+ release compared to NAADP (fold less potent) (NAADP receptor [1]) | loss of potency relative to NAADP (NAADP receptor [2]) | also measured
Nc1cc(C(=O)[O-])c[n+]([C@H]2O[C@@H](COP(=O)(O)OP(=O)(O)OC[C@H]3O[C@@H](n4cnc5c(N)ncnc54)[C@H](OP(=O)(O)O)[C@@H]3O)[C@H](O)[C@@H]2O)c1 [compound 20, 5-amino-NAADP] |  | approximately equipotent with NAADP | only slightly less potent than is NAADP itself | concentration as low as which calcium-ion release is induced (NAADP receptor [1]): 2 nM; amount of calcium release at saturating concentrations (NAADP receptor [1]): same amount of calcium release as did the full agonist NAADP
Nc1cc[n+]([C@H]2O[C@@H](COP(=O)(O)OP(=O)(O)OC[C@H]3O[C@@H](n4cnc5c(N)ncnc54)[C@H](OP(=O)(O)O)[C@@H]3O)[C@H](O)[C@@H]2O)cc1C(=O)[O-] [compound 16, 4-amino-NAADP] |  | two hundred to two thousand fold less potent | 100 to 200 fold | 
Cc1cc(C(=O)[O-])c[n+]([C@H]2O[C@@H](COP(=O)(O)OP(=O)(O)OC[C@H]3O[C@@H](n4cnc5c(N)ncnc54)[C@H](OP(=O)(O)O)[C@@H]3O)[C@H](O)[C@@H]2O)c1 [compound 21, 5-methyl-NAADP] |  | approximately equipotent with NAADP | only slightly less potent than is NAADP itself | concentration as low as which calcium-ion release is induced (NAADP receptor [1]): 2 nM; amount of calcium release at saturating concentrations (NAADP receptor [1]): same amount of calcium release as did the full agonist NAADP; receptor desensitization to 1 μM NAADP after pretreatment (NAADP receptor [3]): same characteristic receptor desensitization as does NAADP itself
Cc1cc[n+]([C@H]2O[C@@H](COP(=O)(O)OP(=O)(O)OC[C@H]3O[C@@H](n4cnc5c(N)ncnc54)[C@H](OP(=O)(O)O)[C@@H]3O)[C@H](O)[C@@H]2O)cc1C(=O)[O-] [compound 17, 4-methyl-NAADP] |  | two hundred to two thousand fold less potent | 100 to 200 fold | potency for Ca2+ release compared with the 5-isomer 21 (NAADP receptor [1]; Figure 1): significantly less potent
